Source: PMC3466269, “A Comprehensive Strategy to Discover Inhibitors of the Translesion Synthesis DNA Polymerase κ” (PLoS ONE, 2012)
Where two headings read alike, the source gives them in different places.

Legend:
pol κ = settings: cited from earlier work
mouse pol ι = test system: mouse pol ι; parameters: method as in PMID 19223184; settings: read-out: IC50 against pol ι; cited from earlier work
XP30RO cells (XP-V) = assay: Cell survival assay, crystal violet, with or without UV; settings: crystal violet; inhibitor 6 h then UV 1.5, 4.5 or 7.5 J/m^2; candesartan cilexetil 24 µM
Method: Cell survival assays were carried out using crystal violet assays and CellTiter-Glo Luminescent Cell Viability Assays. In crystal violet assays, XP30RO cells were plated into clear 96-well plates at a density of 8000 cells/mL and incubated overnight at 37°C, 5% CO2. The cells were treated with (1) inhibitor alone for 6 h or (2) UV alone or (3) inhibitor alone for 6 h followed by UV irradiation. After 2 days, cells were fixed with 4% paraformaldehyde and stained with 0.5% crystal violet dye. The dye was dissolved in 10% acetic acid and absorbance measurement was taken at OD595 nm with Infinite® M200 plate reader (Tecan, Durham, NC). For the CellTiter-Glo Luminescent Cell Viability Assays, the same procedures as crystal violet assays were used except that white/clear bottom 96-well plates were used and cell viability was measured following manufacturer's recommendations.
XP30RO cells were treated with 24 µM of candesartan cilexetil alone, UV alone at 1.5 J/m^2, 4.5 J/m^2, or 7.5 J/m^2, or in combination. Percent survival was calculated by normalizing the data using the cell survival of untreated cells. The data were obtained from three independent experiments.

Human pol κ [1] = target: T1, Human pol κ (Homo sapiens, UniProt Q9UBT6); assay: Radioactive gel-based primer extension (TLS) past acrolein-derived ring-opened reduced form of γ-HOPdG, pol κ; format: biochemical
T1 construct: Human pol κ (residues 19–526) was purified as previously reported; made in house
T1 sequence (Q9UBT6 19-526): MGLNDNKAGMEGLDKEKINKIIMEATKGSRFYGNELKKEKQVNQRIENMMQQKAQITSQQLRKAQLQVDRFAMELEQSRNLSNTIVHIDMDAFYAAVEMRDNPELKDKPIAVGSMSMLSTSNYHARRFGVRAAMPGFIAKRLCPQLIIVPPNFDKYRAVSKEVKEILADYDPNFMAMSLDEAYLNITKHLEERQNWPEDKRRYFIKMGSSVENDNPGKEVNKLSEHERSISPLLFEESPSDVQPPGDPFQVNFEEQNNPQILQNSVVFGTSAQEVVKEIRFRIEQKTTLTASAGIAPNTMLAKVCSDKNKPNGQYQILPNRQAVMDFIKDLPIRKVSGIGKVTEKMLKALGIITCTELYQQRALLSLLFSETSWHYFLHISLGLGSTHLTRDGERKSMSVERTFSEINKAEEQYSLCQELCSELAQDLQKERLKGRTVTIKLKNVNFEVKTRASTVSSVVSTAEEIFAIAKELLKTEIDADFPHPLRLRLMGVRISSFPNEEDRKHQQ
Method: (§1) The reactions with pol κ, pol η, and pol ι were carried out in the buffers containing 25 mM Tris-HCl, pH 7.5, 8 mM MgCl2, 10% glycerol, 100 µg/mL bovine serum albumin, and 5 mM DTT. Buffers for pol δ reactions contained 40 mM Hepes-KOH, pH 6.8, 10% glycerol, 200 µg/mL bovine serum albumin, 1 mM DTT, and 8 mM MgCl2. Final concentration of pol κ, pol η, pol ι, or pol δ in the reaction was 0.25 nM, 1 nM, 2.5 nM, or 4 nM, respectively. In this assay, a polymerase was preincubated with the compound for 15 min at room temperature. Primer extensions were then initiated by the addition of DNA substrate at final concentration of 5 nM and carried out for 30 min at room temperature in the presence of 100 µM dCTP and dGTP. The reactions were terminated by the addition of an equal volume of a dye solution containing 95% (v/v) formamide, 10 mM EDTA, 0.03% (w/v) xylene cyanol, and 0.03% (w/v) bromphenol blue. Reaction products were separated through a 15% acrylamide gel containing 8 M urea and visualized with a PhosphorImager screen. The ratio of extended primer to the total amount of primer was measured using ImageQuant 5.2 software to calculate the percentage of primer extended. IC50 values were determined by fitting the data to variable slope four-parameter equations using GraphPad Prism 5.
The primary role of pol κ is to bypass DNA lesions. Therefore, it was critical to establish the assays to investigate the capability of these compounds to inhibit lesion bypass activity of pol κ. Radioactive gel-based primer extension reactions were carried out using a DNA substrate containing a site-specific acrolein-derived ring-opened reduced form of γ-HOPdG, a lesion that pol κ can efficiently bypass in vitro [13].

Human pol κ [2] = target: T1, Human pol κ; assay: Radioactive gel-based primer extension assay on non-damaged DNA, pol κ; format: biochemical
Method: as §1

[3] = target: T2, Human pol κ (residues 19–526) (Homo sapiens, UniProt Q9UBT6); assay: qHTS fluorescence-based DNA strand displacement assay; format: biochemical
T2 construct: Human pol κ (residues 19–526) was purified as previously reported; made in house
T2 sequence (Q9UBT6 19-526): T1 sequence (Q9UBT6 19-526)
Method: The substrate used in qHTS was made by the annealing of unlabeled oligodeoxynucleotide primer (5′-TCACCCTCGTACGACTC-3′) and TAMRA-labeled reporter strand (5′-TTTTTTTTTTGC-6-TAMRA-3′) to oligodeoxynucleotide template labeled with BHQ-2 (5′-BHQ-2-[…]-3′) as originally described by Dorjsuren et al.. The annealing mixture of unlabeled primer, TAMRA-labeled reporter, and BHQ-2-labeled template in buffer containing 50 mM Tris-HCl, pH 8.0, 100 mM NaCl, and 5 mM MgCl2 was heated at 95°C for 5 min and allowed to cool gradually to room temperature. The substrate was then stored at −20°C as 50 µM stock.
qHTS was performed in 50 mM Tris-HCI, pH 8.0, 40 mM NaCl, 1 mM MgCl2, 0.01% Tween-20, 2 mM DTT, and 100 µM dTTP. 3 µL of reagents (buffer as negative control and pol κ in the remaining plate at 10 nM final concentration) were dispensed by Flying Reagent Dispenser™ (FRD) (Beckman Coulter, Inc., Fullerton, CA) into a 1,536-well plate. Compounds were delivered as 23 nL in DMSO solution via pintool transfer; vehicle-only control consisted of 23 nL DMSO. The plate was incubated for 15 min at room temperature, and then 1 µL of substrate (50 nM final concentration) was added to initiate the reaction. The plate was immediately transferred into ViewLux reader for kinetic fluorescence data collection.
To lay the foundation for the methodologies to discover and characterize inhibitors of pol κ, we used a fluorescent reporter strand displacement assay (Figure 1 and [27]). The library of bioactive small molecules was tested as seven-point dilution series, with the final concentrations ranging from 2.9 nM to 57 µM.

[4] = test system: double-stranded DNA ladder; assay: DNA intercalation assay (agarose gel shift of DNA ladder); format: binding; settings: 0.75 or 3 nmol compound with 1.5 nmol DNA, 1% agarose gel
Method: Candesartan cilexetil or ethidium bromide was incubated with 1.5 nmol of double-stranded DNA ladder for 15 min at room temperature in the buffer containing 50 mM Tris-HCl, pH 8.0, 0.01% Tween-20, 1 mM DTT, and 40 mM NaCl. The reaction mixtures were run on 1% agarose gel and stained with ethidium bromide (0.5 µg/ml) for visualization.
Figure 7 The non-DNA-intercalating property of candesartan cilexetil. Candesartan cilexetil or ethidium bromide was incubated with double-stranded DNA ladder, and the reaction products were run on 1% agarose gel and stained with ethidium bromide. Lane 1: No compound. Lane 2: 0.75 nmol of candesartan cilexetil was incubated with 1.5 nmol DNA. Lane 3: 3 nmol of candesartan cilexetil was incubated with 1.5 nmol DNA. Lane 4: 0.75 nmol of ethidium bromide was incubated with 1.5 nmol DNA. Lane 5: 3 nmol of ethidium bromide was incubated with 1.5 nmol DNA.

pol α = test system: pol α; parameters: method as in PMID 20599777; settings: cited from earlier work

Which IC50 (pol κ) does the source give for `CC1=CC[C@H]2C(C)(C)CCC[C@]2(C)[C@H]1CCCCCCCCCCCCCCCCC(=O)O` (relative stereo) [(1S*,4aS*,8aS*)-17-(1,4,4a,5,6,7,8,8a-octahydro-2,5,5,8a-tetramethylnaphthalen-1-yl)heptadecanoic acid] here?
Its IC50 is 7.2 µM.

With `C/C=C/C(=O)C1=C(OC)OC(C)(/C=C/C=C/C(C)O)C1=O` (stereo not drawn) [Penicilliol A] as the compound, how does the IC50 (mouse pol ι) read?
Its IC50 is 19.8 µM.

With `COC1=C(C(=O)CC(C)O)C(=O)C(C)(/C=C/C=C/C(C)O)O1` (stereo not drawn) [Penicilliol B] as the compound, how does the IC50 (mouse pol ι) read?
The IC50 was 32.5 µM.

Which IC50 (pol κ) does the source give for C18:1-Acyl juglone here?
Its IC50 is 8.1 µM.

Which “Effect on UV-induced cytotoxicity” value (XP30RO cells (XP-V)) does the source give for `CC(C)c1ccc2c(c1)c(SC(C)(C)C)c(CC(C)(C)C(=O)O)n2Cc1ccc(Cl)cc1` [MK-886] here?
Its value is “failed to enhance UV toxicity”.

And the IC50 (Human pol κ [1]; primer extension, adducted DNA, 0.25 nM pol κ, average ± standard error, three experiments, read-out: gel: ring-opened reduced form of γ-HOPdG: IC50)?
The IC50 was 14 ± 0.9 µM.

What about the IC50 (Human pol κ [2]; primer extension, non-damaged DNA, 0.25 nM pol κ, average ± standard error, three experiments, read-out: gel: non-damaged: IC50) of the same compound?
The IC50 was 13 ± 1.7 µM.

And the IC50 ([3]; fluorescence strand displacement, 10 nM pol κ, 50 nM substrate, 100 µM dTTP, read-out: qHTS: IC50)?
Its IC50 is 30 µM.

Which IC50 (pol κ) does the source give for `CC1(C)[C@@H](O)CC[C@]2(C)[C@H]3C(=O)C=C4[C@@H]5C[C@@](C)(C(=O)O)CC[C@]5(C)CC[C@@]4(C)[C@]3(C)CC[C@@H]12` [Glycyrrhetinic acid] here?
Its IC50 is 15.8 µM.

With `CCCCCCCCCCCC(=O)Oc1cccc2c1C(=O)C=CC2=O` [C12:0-Acyl juglone] as the compound, how does the IC50 (pol κ) read?
Its IC50 is 6.8 µM.

Which “DNA migration pattern (intercalation)” value [4] does the source give for `CC[n+]1c(-c2ccccc2)c2cc(N)ccc2c2ccc(N)cc21` [ethidium bromide] here?
The value was “bands shifted upwards”.

What does the source list for `CC1=C(CC/C(C)=C/CCC2=CC[C@H](C3=CC(=O)O[C@H]3O)O[C@H]2O)C(C)(C)CCC1` [manoalide]?
Effect on UV-induced cytotoxicity (XP30RO cells (XP-V)): failed to enhance UV toxicity; IC50 (Human pol κ [1]): 5.6 ± 0.9 µM; IC50 (Human pol κ [2]): 3.4 ± 0.9 µM; IC50 [3]: 9.5 µM

Which IC50 (pol κ) does the source give for `O=C(OC[C@H]1O[C@@H](OC(=O)c2cc(O)c(O)c(O)c2)[C@H](OC(=O)c2cc(O)c(O)c(O)c2)[C@@H](OC(=O)c2cc(O)c(O)c(O)c2)[C@@H]1OC(=O)c1cc(O)c(O)c(O)c1)c1cc(O)c(O)c(O)c1` [penta-1,2,3,4,6-O-galloyl-beta-D-glucose] here?
Its IC50 is 0.03 µM.

And the IC50 (pol α)?
Its IC50 is 0.013 µM.

With `C/C=C/c1occ(C(=O)c2c(OC)cc(OC)cc2C(=O)OC)c(=O)c1OC` [3-O-methylfunicone] as the compound, how does the IC50 (pol κ) read?
The IC50 was 12.5 µM.
